Data on four molecules can be found in patent publication US9579364B2, “Methods for treating benign prostatic hypertrophy (BPH)” (New York University, priority 2002, dated 2017).

Marks after values point to notes of the source that are not given here. Bridge positions count the residues as written; N and C are the ends. Square brackets hold non-standard residues; d marks the D form. Peptide text beside a SMILES is read from it. dDab = NCC[C@@H](N)C(=O)O

The test system of data set [1] is all five somatostatin receptor subtypes. The conditions noted are these: cited from earlier work.
For data set [2] the following is noted: cited from earlier work.
The subject of data set [3] is prostate of intact 28 day old male mice. Put plainly: PQ401 or SS14 treatment of intact 28 day old male mice: prostate. It is filed as in vivo. The protocol: To examine further the effect of various compounds on glandular and fibromuscular development of the prostate, somatostatin-14 (SS14, a native somatostatin) and an exemplary small molecule IGF-I receptor inhibitor PQ401 were assessed in a variety of animal models.
In a first experimental approach, the effect of treatment of intact 28 day old male mice with vehicle or PQ401 (a small molecule IGF-I receptor specific inhibitor) or somatostatin-14 (SS14; a native somatostatin) was evaluated. PQ401 and SS14 inhibit IGF-I action. For these experiments, N=5 mice per group. The results of these experiments are presented below in Tables 7-10: […]

The subject of data set [4] is IGF-IR signaling. The conditions noted are these: chemical library screen; cited from earlier work.
For data set [5], the system named is probasin in epithelial cells of the prostate. As to the kind of experiment: Probasin immunostaining of prostate sections (FIG. 6). It is filed as in vivo, mice. The conditions noted are these: FIG. 6(i-l).
From the text: FIG. 6 depicts the effect of IGF-1 and/or T on histological appearance of prostate glands during development. Sections are shown through prostate glands from control animals (a, e, i) and animals treated with T alone (b, f, j), IGF-I alone (c, g, k), and IGF-I plus T (d, h, i). […] (i-1) Probasin immunostaining, brown color in the epithelial cells of the prostate. Magnification ×400.
The relative effects of IGF-I and T on prostate development were also studied in histological sections of whole prostate. This allowed determination of such effects on glandular microstructure and the stromal compartment of the prostate.
FIG. 6 depicts sections through prostate glands from control animals (FIG. 6(a, e, i)), animals treated with T alone (FIG. 6(b, f, j)), IGF-I alone (FIG. 6(c, g, k)), and IGF-I plus T (FIG. 6(d, h, i)).
Data set [6] relates to prostate of castrated IGF-I^(−/−) male mice. As to the kind of experiment: Prostate glandular tree development, castrated IGF-I(-/-) male mice treated 28 days. The conditions noted are these: 28 days treatment. It is filed as in vivo. The protocol:
(§1) These include transgenic mice overexpressing a GH antagonist (that binds to and inactivates GH receptors making the animals functionally deficient in GH), growth hormone releasing factor receptor (GHRH-R^−/−) knockout mice (Lit/Lit), and Ames (df/df) mice (Prop 1 Deficiency). Deficient prostate development in GH inhibitor overexpression animals was previously reported (see Ruan et al, Endocrinology 140:1984-1989, 1999). Analysis of development was determined by dissecting away the periprostatic fat and teasing the glandular structures from the connective tissue in a solution containing collagenase so that the entire glandular tree could be photographed for later structural analysis. Much the same as in the mice overexpressing the mutant growth hormone, the other GH deficient mice had significant impairment of prostate development (p<0.0002) including a reduction in the number of terminal duct tips (TDTs), the area of the prostate gland, the number of quaternary branches and the number of branch points (TABLE 3). Any differences in these GH deficient mice may in part be due to the fact that the different strains were not analyzed at exactly the same age (Lit/Lit 50 days old, Ames 47 days old and bGH transgenic 44 days of age). The n was also different which may have led to greater significance in the Lit/Lit mice.
To clearly differentiate between the effects of IGF-I and T on development of the prostate gland, hormone replacement experiments were conducted on IGF-I^(−/−) male mice that had been castrated. In addition to evaluating the effect of IGF-I and T on gland structure development described above, we also evaluated the relative effects of these hormones on development of the stromal compartment of the prostate and also on histology of the glandular compartment. This was accomplished by sectioning and staining the prostate to highlight aspects of development.
Castrated IGF-I^(−/−) male mice were treated with T (administered by silastic capsules embedded on the backs of animals, subcutaneously). Des (1-3) IGF-I (40 μg/pump) was also implanted subcutaneously.

The subject of data set [7] is prostate of castrated IGF-I^(−/−) null male mice. As to the kind of experiment: Morphometry of histological prostate sections, castrated IGF-I(-/-) null male mice treated 7 days. In kind it is in vivo. The protocol:
Groups of castrated IGF-I^(−/−) null male mice were treated with either vehicle, testosterone in silastic capsules, des(1-3) IGF-I by an infusion through an Alzet pump containing 20 μg per pump, or the combination of testosterone and IGF-I for a period of 7 days.
In order to determine which specific structure was affected by which hormone, entire urogenital complexes were embedded in paraffin blocks, including the prostate glands, coagulating glands, seminal vesicles, urethra, urinary bladder attached to parts of the ureter, vas deferens, and ampullary glands. These were carefully sectioned such that the areas of prostate development could be analyzed.
The prostates were then removed, fixed and examined histologically. Morphometric analysis was carried on 30 cross sections of the prostate taken from five different serial sections. Changes in the area of the lumen, epithelial layer and fibromuscular layer were determined. These counts were performed using a Provis ×70 microscope (Olympus) attached to an Olympus DP10 digital camera. Images were taken using a 20× apochromate objective and were captured digitally at a resolution of 386 pixels. Data were tested for statistical significance using the SPSS statistical computer program (SPSS, Inc., Chicago, Ill.). Since assumptions for a parametric test were not valid (Kolmogorov-Sminov p<0.05), all data were evaluated by Kruskall-Wallis analysis of variance and the Mann-Whitney U test as a multiple comparison method.

The subject of data set [8] is IGF-I receptor. As to the kind of experiment: IGF-I receptor immunopositive cells in prostate elements. It is filed as in vivo.
In data set [9] the test system is prostate of IGF-I^(−/−) null male mice. Put plainly: Restoration of prostate development in IGF-I(-/-) null male mice. It is filed as in vivo. The source says: That IGF-I was also found to be essential for full prostate development was shown in a series of experiments employing IGF-I^(−/−) null male mice.
For data set [10], the system named is prostate of castrated Ames dwarf mice. As to the kind of experiment: IGFBP-1 inhibition of GH-induced prostate development in castrated Ames dwarf mice. It is filed as in vivo. Conditions: 10-wk-old castrated Ames dwarf mice, 7 d. The protocol:
To determine whether IGF-I inhibition could impair prostate development induced by GH-stimulated IGF-I and normal development in eugonadal animals, the effect of IGFBP-1 was tested in the following two models.
Ames dwarf mice have impaired prostate development because they are deficient in GH. They are also deficient in prolactin, TSH, and gonadotrophins (Andersen et al., 1995, Dev Biol 172:495-503; the entire content of which is incorporated herein by reference). To determine if IGFBP-1 could prevent bGH-induced IGF-I action, 10-wk-old castrated Ames animals were treated with bGH with or without infusion of IGFBP-1 for 7 d. IGFBP-1 inhibited GH-induced fibromuscular and glandular development (Table 6).

For data set [11], the system named is prostate of Lit/Lit dwarf animals. Put plainly: bGH restoration of impaired prostate development in Lit/Lit dwarf animals. In kind it is in vivo. The conditions noted are these: Lit/Lit dwarf mice. The protocol:
as §1
The fact that GH treatment was capable of restoring impaired prostate development in GH deficient mice was shown in an experiment on Lit/Lit dwarf animals. Groups of animals were treated with either bGH (100 μg over 7 days by Alzet pump) or vehicle. The prostates were then removed and examined as described above. Treatment with bGH increased the number of TDTs from a mean of 48 (controls) to 61 (treated) p=0.011, the area of the gland from 0.71 cm^2 to 1.12 (NS), quaternary branching from 35 to 44 (p<0.01) and branch points from 37 to 46 (p=0.011).

In data set [12] the test system is IGF-I. Put plainly: IGF-I by RIA in homogenates of prostate glands after bGH. The conditions noted are these: 87 day old male mice, bGH 200 μg daily for 4 days; untreated 223. In kind it is in vivo. The protocol: IGF-I, as measured by RIA, was detected in homogenates of prostate glands from 87 day old male mice (223 ng/5 prostates). When bGH (200 μg daily for 4 days) was administered IGF-I rose to 418-526 ng/5 prostates. Serum IGF-I was 494 ng/ml in normal male mice. The IGF-I in prostate was likely produced there because bGH increases IGF-I mRNA in prostate.

[13] abbreviates: castrated IGF-I knockout male mice, 7 days treatment.
Setting [14] is: castrated at 56 days, hormones for 7 days (Table 5).

Turning to `C[C@@H](O)[C@@H]1NC(=O)[C@H](CCCCN)NC(=O)[C@@H](Cc2c[nH]c3ccccc23)NC(=O)[C@H](Cc2ccccc2)NC(=O)[C@H](Cc2ccccc2)NC(=O)[C@H](CCCNC(=N)N)NC(=O)[C@H](NC(=O)[C@@H](N)Cc2ccc(O)cc2)CCNC(=O)[C@H](Cc2ccccc2)NC1=O` [KE108] (H-Y[dDab]RFF[dW]KTF; lactam 2-C), the “affinity for all five somatostatin receptor subtypes” value in data set [1] was “extremely high affinity”. The “stability in human serum” value in [2] is reported as “stable for several hours”.
For `COc1ccc(Cl)cc1NC(=O)Nc1cc(C)nc2ccccc12` [PQ401], the “area of the Longitudinal muscle” value in data set [3] (28 day old male mice, controls 0.939) amounted to 0.868 mm^2. Further, in data set [3] (28 day old male mice, controls 1.322), the “total area of the Circular muscle” value stood at 0.789 mm^2. Moreover, in data set [3] (intact 28 day old male mice, vs 28 day control), the “% Reduction of prostate weight” value was 31%. For the same molecule, the prostate weight in data set [3] (intact 28 day old male mice, control 26.8 ± 1.0, p < 0.0001) is given as 18.4 ± 0.5 mg. Also, the “inhibition of IGF-IR signaling” value in data set [4] is “potent inhibitor”.
As for `C[C@]12CC[C@H]3[C@@H](CCC4=CC(=O)CC[C@@]43C)[C@@H]1CC[C@@H]2O` [TESTOSTERONE, testosterone], the “probasin immunostaining in the epithelial cells of the prostate” value in data set [5] is “scattered number of probasin immunopositive epithelial cells”. In addition, in [6], the “4°- branching, ventral prostate” value is recorded as 8.0 ± 0.6 ^a; the “Area, dorsal prostate” value is 0.15 ± 0.01 ^a cm^2; the “Area, ventral prostate” value is 0.16 ± 0.01 ^a cm^2; the “Branch Points, ventral prostate” value is on record as 12.0 ± 1.2 ^. Besides, in data set [6], the “Terminal Duct Tips, dorsal prostate” value is on record as 17.0 ± 1.2 ^a; the “Terminal Duct Tips, ventral prostate” value was 16.3 ± 1.2 ^; the “Width of TDTs, dorsal prostate” value is listed as 0.227 ± 0.003 ^b mm; the “Width of TDTs, ventral prostate” value was 0.236 ± 0.003 ^b mm. For the same molecule, in data set [7] (setting [13]), the “Area of prostatic component (mean values): Eptithelium” value is reported as “Eptithelium = 84,551.64 μm^2”, the “Area of prostatic component (mean values): Lumen” value is “Lumen = 369,495.45 μm^2”, the “Area of prostatic component (mean values): Stroma (connective-muscle)” value is given as “Stroma (connective-muscle) = 89,797.254 μm^2” and the “Area of prostatic components (mean values): Total” value is listed as “Total = 543,844.34 μm^2”. In data set [7] (setting [13]), the “Percentage of area: Eptithelium” value came out at 15%, the “Percentage of area: Lumen” value is 69% and the “Percentage of area: Stroma (connective-muscle)” value is listed as 16%. In data set [7] (setting [14]), the “Mean area of prostatic component: Epithelium” value is 84 × 10^3 μm^2, the “Mean area of prostatic component: Fibromuscular tissue” value was 89 × 10^3 μm^2, the “Mean area of prostatic component: Lumen” value is 369 × 10^3 μm^2 and the Mean section size is listed as 543 × 10^3a μm^2. In data set [7] (setting [14]), the “percentage occupied: Epithelium” value is “(15%)^a”, the “percentage occupied: Fibromuscular tissue” value is reported as “(16%)^b” and the “percentage occupied: Lumen” value was “(69%)^a”. The “% IGF-I receptor immunopositive cells, epithelium” value in data set [8] (prostate epithelium) was 0%. For the same molecule, the “% IGF-I receptor immunopositive cells, fibromuscular” value in data set [8] (prostate fibromuscular elements) was 95 ± 0.4%. In data set [9], the “restoring impaired prostate development” value is “partially but significantly restored”.

B1: bGH: growth hormone (bGH) given to GH deficient mice by Alzet pump (protein, UniProt P01246 27-217, looked up)
Somatotropin: AFPAMSLSGLFANAVLRAQHLHQLAADTFKEFERTYIPEGQRYSIQNTQVAFCFSETIPAPTGKNEAQQKSDLELLRISLLLIQSWLGPLQFLSRVFTNSLVFGTSDRVYEKLKDLEEGILALMRELEDGTPRAGQILKQTYDKFDTNMRSDDALLKNYGLLSCFRKDLHKTETYLRVMKCRRFGEASCAF
With B1, in data set [10], the Epithelium is reported as 160.5 ± 4.0^c,d μm^2 (×10^3), the Fibromuscular is 253.4 ± 18.6^a,b μm^2 (×10^3), the Lumen is 274.7 ± 11.9^c,d μm^2 (×10^3) and the Total is on record as 688.6 ± 32.4^a,b μm^2 (×10^3). Moreover, in data set [11] (bGH 100 μg over 7 days by Alzet pump, controls 48, p=0.011), the “number of TDTs (mean)” value came out at 61. For the same molecule, the “area of the gland” value in [11] (bGH 100 μg over 7 days, controls 0.71, NS) is 1.12 cm^2. The same molecule came in with a quaternary branching in [11] (bGH 100 μg over 7 days, controls 35, p<0.01) of 44. This molecule registered a branch points in [11] (bGH 100 μg over 7 days, controls 37, p=0.011) of 46. Moreover, in [12], the “IGF-I in homogenates of prostate glands (RIA)” value was 418-526 ng/5 prostates. The “restoring impaired prostate development” value in [9] is listed as “no effect”.
